{"source": "patent US12540141B2", "about": "“Spiropyrrolidine derived antiviral agents” (priority 2020, dated 2026)"}
{"target": "SARS-CoV-2 3CL-protease (Severe acute respiratory syndrome coronavirus 2, UniProt P0DTD1)", "test": "SARS-CoV-2 3C-Like (3CL) Protease Fluorescence Assay (FRET)", "assay_type": "biochemical", "settings": "SARS-CoV-2 3CL-protease 10 nM, 30 min preincubation at RT, substrate 40 μM", "units": {"IC50": "nM"}}
{"smiles": "C=C(C)c1ccc2c(c1)[C@@]1(C[C@@H](C#N)N(C(=O)[C@H](CC(C)C)N(C)C(=O)c3cc4c(F)cc(F)cc4[nH]3)C1)C(=O)N2", "note": "[Example 498, N—((S)-1-((3R,5′S)-5′-cyano-2-oxo-5-(prop-1-en-2-yl)spiro[indoline-3,3′-pyrrolidin]-1′-yl)-4-methyl-1-oxopentan-2-yl)-4,6-difluoro-N-methyl-1H-indole-2-carboxamide]", "IC50": "< 100"}
{"smiles": "CC(C)C[C@@H](C(=O)N1C[C@]2(C[C@H]1C#N)C(=O)Nc1ccccc12)N(C)C(=O)c1cnn(-c2ccccc2C(F)(F)F)c1", "note": "[Example 353]", "IC50": "< 100"}
{"smiles": "CN(C(=O)c1cc2c(OC3CC3)cccc2[nH]1)[C@@H](CC(C)(C)C)C(=O)N1C[C@]2(C[C@H]1C#N)C(=O)Nc1ccccc12", "note": "[Example 375]", "IC50": "< 100"}
{"smiles": "CC[C@@H](C(=O)N1C[C@]2(C[C@H]1C#N)C(=O)Nc1ccccc12)N(C)C(=O)c1cc2c(F)cc(F)cc2[nH]1", "note": "[Example 385]", "IC50": "100 to 1000"}
{"smiles": "CN(C(=O)c1cc2ccncc2[nH]1)[C@@H](CC1CC1)C(=O)N1C[C@]2(C[C@H]1C#N)C(=O)Nc1ccc(Cl)cc12", "note": "[Example 458]", "IC50": "< 100"}
{"smiles": "CC(C)C[C@@H](C(=O)N1C[C@]2(C[C@H]1C#N)C(=O)Nc1ccccc12)N(C)C(=O)c1cc2cccc(F)c2[nH]1", "note": "[Example 325]", "IC50": "< 100"}
{"smiles": "CC(C)C[C@@H](C(=O)N1C[C@]2(C[C@H]1C#N)C(=O)Nc1ccccc12)N(C)C(=O)c1cc2ccccc2o1", "note": "[Example 208]", "IC50": "< 100"}
{"smiles": "Cc1cccc(CC(=O)N(C)[C@@H](CC(C)(C)F)C(=O)N2C[C@]3(C[C@H]2C#N)C(=O)Nc2ccc(Cl)cc23)n1", "note": "[Example 487]", "IC50": "< 100"}
{"smiles": "CC(C)(C)C[C@H](NC(=O)OC(C)(C)c1ccc(F)cc1)C(=O)N1C[C@]2(C[C@H]1C#N)C(=O)Nc1ccc(Cl)cc12", "note": "[Example 496]", "IC50": "> 1000"}
{"smiles": "CN(C(=O)c1cn(C(C)(C)C)nn1)[C@@H](Cc1ccccc1)C(=O)N1C[C@]2(C[C@H]1C#N)C(=O)Nc1ccccc12", "note": "[Example 363]", "IC50": "< 100"}
{"smiles": "CC(C)(F)C[C@H](NC(=O)c1ccc(F)cc1F)C(=O)N1C[C@]2(C[C@H]1C#N)C(=O)Nc1ccc(Cl)cc12", "note": "[Example 449]", "IC50": "100 to 1000"}
{"smiles": "CC(C)C[C@@H](C(=O)N1C[C@]2(C[C@H]1C#N)C(=O)Nc1ccccc12)N(C)C(=O)c1c(Cl)ccc(Cl)c1F", "note": "[Example 169]", "IC50": "< 100"}
{"smiles": "CC(C)C[C@@H](C(=O)N1C[C@]2(C[C@H]1C#N)C(=O)Nc1ccccc12)N(C)C(=O)c1nc2c(F)cc(F)cc2[nH]1", "note": "[Example 269]", "IC50": "< 100"}
{"smiles": "Cc1cc2cc(C(=O)N[C@@H](CC(C)(C)C)C(=O)N3C[C@]4(C[C@H]3C#N)C(=O)Nc3ccccc34)cc(Cl)c2nc1C", "note": "[Example 147]", "IC50": "< 100"}
{"smiles": "CC(C)C[C@@H](C(=O)N1C[C@]2(C[C@H]1C(=O)CO)C(=O)Nc1ccccc12)N(C)C(=O)c1cc2c(F)cc(F)cc2[nH]1", "note": "[Example 157]", "IC50": "> 1000"}
{"smiles": "Cc1ccc2cc(C(=O)N(C)[C@@H](CC(C)C)C(=O)N3C[C@]4(C[C@H]3C#N)C(=O)Nc3ccc(Cl)cc34)[nH]c2n1", "note": "[Example 469]", "IC50": "< 100"}
{"smiles": "CN(C(=O)c1cc2c(F)cc(F)c(F)c2[nH]1)[C@@H](CC(C)(C)O)C(=O)N1C[C@]2(C[C@H]1C#N)C(=O)Nc1ccccc12", "note": "[Example 444]", "IC50": "100 to 1000"}
{"smiles": "CN(C(=O)c1cc2ncccc2[nH]1)[C@@H](CC1CC1)C(=O)N1C[C@]2(C[C@H]1C#N)C(=O)Nc1ccc(Cl)cc12", "note": "[Example 456]", "IC50": "< 100"}
{"smiles": "CN(C(=O)c1cnn(C(C)(C)C)c1Cl)[C@@H](CC1CC1)C(=O)N1C[C@]2(C[C@H]1C#N)C(=O)Nc1ccccc12", "note": "[Example 409]", "IC50": "< 100"}
{"smiles": "COc1cc(C(=O)N(C)[C@@H](CC(C)C)C(=O)N2C[C@]3(C[C@H]2C#N)C(=O)Nc2ccccc23)cc2cn(C3CCC3)nc12", "note": "[Example 320]", "IC50": "< 100"}
{"smiles": "N#C[C@@H]1C[C@@]2(CN1C(=O)[C@H](CC1CC1)NC(=O)c1c(Cl)cccc1Cl)C(=O)Nc1ccc(F)cc12", "note": "[Example 522]", "IC50": "100 to 1000"}
{"smiles": "CC(C)C[C@@H](C(=O)N1C[C@]2(C[C@H]1C#N)C(=O)Nc1ccccc12)N(C)C(=O)N1Cc2cn[nH]c2C1", "note": "[Example 434]", "IC50": "100 to 1000"}
{"smiles": "CC(C)C[C@@H](C(=O)N1C[C@]2(C[C@H]1C#N)C(=O)Nc1ccc(Cl)cc12)N(C)C(=O)c1cc2cccnc2[nH]1", "note": "[Example 468]", "IC50": "< 100"}
{"smiles": "CC(C)C[C@@H](C(=O)N1C[C@]2(C[C@H]1C#N)C(=O)Nc1ncccc12)N(C)C(=O)c1cc2c(F)cc(F)cc2[nH]1", "note": "[Example 549]", "IC50": "< 100"}
{"smiles": "CC(C)(C)C[C@H](NC(=O)c1cn(-c2cccc(Cl)c2)nn1)C(=O)N1C[C@]2(C[C@H]1C#N)C(=O)Nc1ccccc12", "note": "[Example 142]", "IC50": "100 to 1000"}
{"smiles": "CN(C(=O)OCc1ccccc1)[C@@H](Cc1ccc(OCc2ccccc2)cc1)C(=O)N1C[C@]2(C[C@H]1C#N)C(=O)Nc1ccccc12", "note": "[Example 387]", "IC50": "> 1000"}
{"smiles": "CC(C)(C)n1cc(C(=O)N[C@@H](CC2CC2)C(=O)N2C[C@]3(C[C@H]2C#N)C(=O)Nc2ccccc23)cn1", "note": "[Example 132]", "IC50": "< 100"}
{"smiles": "CC(C)C[C@@H](C(=O)N1C[C@]2(C[C@H]1C#N)C(=O)Nc1ccccc12)N(C(=O)C(F)(F)F)C(C)C", "note": "[Example 432]", "IC50": "> 1000"}
{"smiles": "Cc1cccc2c1NC(=O)[C@]21C[C@@H](C#N)N(C(=O)[C@H](CC(C)C)NC(=O)c2cc3c(F)cccc3[nH]2)C1", "note": "[Example 534]", "IC50": "< 100"}
{"smiles": "CC(C)C[C@@H](C(=O)N1C[C@]2(C[C@H]1C#N)C(=O)Nc1ccc(-c3ccsc3)cc12)N(C)C(=O)c1cc2c(F)cc(F)cc2[nH]1", "note": "[Example 513]", "IC50": "< 100"}
{"smiles": "CC(C)C[C@@H](C(=O)N1C[C@]2(C[C@H]1C#N)C(=O)Nc1ccccc12)N(C)C(=O)c1cc(F)c2nc(C3CC3)[nH]c2c1", "note": "[Example 340]", "IC50": "100 to 1000"}
{"smiles": "CN(C(=O)c1cc2c(F)cc(F)c(F)c2[nH]1)[C@@H](CC(C)(C)F)C(=O)N1C[C@]2(C[C@H]1C#N)C(=O)Nc1ncccc12", "note": "[Example 551]", "IC50": "< 100"}
{"smiles": "CC(C)C[C@@H](C(=O)N1C[C@]2(C[C@H]1C#N)C(=O)Nc1ccccc12)N(C)C(=O)c1nc2cc(Cl)c(Cl)cc2[nH]1", "note": "[Example 251]", "IC50": "100 to 1000"}
{"smiles": "[2H]C([2H])([2H])N(C(=O)c1cn(C2CCC2)nn1)[C@@H](CC(C)(C)C)C(=O)N1C[C@]2(C[C@H]1C#N)C(=O)Nc1ccccc12", "note": "[Example 379]", "IC50": "< 100"}
{"smiles": "CC(C)C[C@@H](C(=O)N1C[C@]2(C[C@H]1C#N)C(=O)Nc1ccccc12)N(C)C(=O)c1cc(Cl)cc(Cl)c1", "note": "[Example 172]", "IC50": "< 100"}
{"smiles": "CC(C)C[C@@H](C(=O)N1C[C@]2(C[C@H]1C#N)C(=O)Nc1ccccc12)N(C)C(=O)c1cn(C2CCC2)nn1", "note": "[Example 365]", "IC50": "< 100"}
{"smiles": "CC(C)C[C@@H](C(=O)N1C[C@]2(C[C@H]1C#N)C(=O)Nc1ccccc12)N(C)C(=O)c1ccccc1Cl", "note": "[Example 162]", "IC50": "< 100"}
{"smiles": "CC(C)(C)C[C@H](NC(=O)Nc1ccc2ccccc2c1)C(=O)N1C[C@]2(C[C@H]1C#N)C(=O)Nc1ccccc12", "note": "[Example 439]", "IC50": "100 to 1000"}
{"smiles": "CC(C)C[C@@H](C(=O)N1C[C@]2(C[C@H]1C(=O)O)C(=O)Nc1ccc(Cl)cc12)N(C)C(=O)c1cc2c(F)cc(F)cc2[nH]1", "note": "[Example 497, (3R,5′S)-5-chloro-1′-(N-(4,6-difluoro-1H-indole-2-carbonyl)-N-methyl-L-leucyl)-2-oxospiro[indoline-3,3′-pyrrolidine]-5′-carboxylic acid]", "IC50": "> 1000"}
{"smiles": "N#C[C@@H]1C[C@@]2(CN1C(=O)[C@H](Cc1ccccc1F)NC(=O)c1cc3c(F)cc(F)cc3[nH]1)C(=O)Nc1ccc(Cl)cc12", "note": "[Example 451]", "IC50": "< 100"}
